Assay results as given in article PMC4589238, “Acute Biphasic Effects of Ayahuasca” (PLoS ONE, 2015).
Where two headings read alike, the source gives them in different places.

Assays:
[1] = system: healthy volunteers; test: Association between plasma concentration and EEG spectral changes (generalized linear models); assay type: in vivo, human; details: for Clusters between plasma concentration and EEG spectra: delta, theta and beta frequency bands; for Cohen's d, plasma concentration vs alpha band: left frontal electrodes
Experimental: Relationships between plasma concentration of identified compounds and spectral changes in the six frequency bands evaluated were calculated by fitting generalized linear models (glmfit function in MATLAB) for each compound and frequency band. This analysis was followed by the non-parametric cluster based correction with 5000 permutations.
Results were considered statistically significant when p <0.05. Effect sizes are also reported, using Partial eta squared (partial η^2) for the main frequency clusters and Cohen’s d for the generalized linear models.

[2] = Plasma concentrations of ayahuasca compounds and metabolites after oral ayahuasca (LC/MS/MS); assay type: in vivo, human; details: for Cmax / Tmax: both sexes, human, in vivo; for Cmax: po
From the text: A sample of six liters of "Hoasca" was donated by the União do Vegetal (UDV) church in Brazil for the specific purpose of use in this study. Quantification of the main compounds in the brew was done with liquid chromatography-electrospray ionization-tandem mass spectrometry (LC/MS/MS). The screening included the following compounds: DMT, DMT‐N‐oxide (DMT-NO), N‐methyltryptamine (NMT), indoleacetic acid (IAA), 5‐hydroxy‐DMT (5-OH-DMT, or bufotenin), 5‐methoxy‐DMT (5-MeO-DMT), Harmine, Harmol, Harmaline, Harmalol, THH, 7‐hydroxy‐tetrahydroharmine (THH-OH), and 2‐methyl‐tetrahydro‐beta‐carboline (2-MTHBC). The original liquid volume was then reduced to 50% using a rotary evaporator to decrease the amount of liquid intake.
Blood was collected in sterile EDTA containing tubes. Ten blood samples (3 mL each) were collected every 25 minutes, starting 25 minutes before ayahuasca ingestion and ending 200 minutes after ingestion (in a total of ten samples for each individual). Blood was collected by a professional nurse, with a catheter that remained in place during the entire time of the study. Each tube was carefully and slowly turned upside-down three times and then stored at 0°C until all ten samples were collected. Blood samples were then centrifuged at 2000 rpm for 10 min at 4°C and the resulting plasma immediately collected and frozen at -80°C. The frozen plasma samples were stored at -80°C until shipped on dry ice to USA for analysis according to [31]. Compounds included in this screening were DMT, DMT-NO, NMT, IAA, 5-OH-DMT (bufotenin), 5-MeO-DMT, Harmine, Harmol, Harmaline, Harmalol, THH, THH-OH and 2-MTHBC.
Two volunteers opted out of blood collection, and data from one volunteer was discarded due to high hemolysis in the blood samples. Therefore data were available from 16 volunteers. Maximum plasma Concentration (Cmax), Time for maximum plasma concentration (Tmax) and area under the curve (AUC) of ten identified compounds are summarized in Table 2. […] No significant differences were found between men and women for any of the identified compounds in blood. […] There were no significant correlations between time to vomit and Cmax or AUC.

[3] = system: human subjects; details: cited from earlier work
[4] = system: MAO-A; design: method as in PMID 19879939; details: cited from earlier work
[5] = system: 5HT-2A receptors; details: cited from earlier work
[6] = left fronto-central electrodes (F7 and FC5)
[7] = left parieto-occipital electrodes
[8] = plasma, 16 volunteers, oral ayahuasca, sampling to 200 min, read-out: Cmax (mean ± sd)
[9] = plasma, 16 volunteers, oral ayahuasca, read-out: Cmax (min—max)
[10] = plasma, 16 volunteers, oral ayahuasca, read-out: Tmax (mean ± sd) (converted)
[11] = plasma, 16 volunteers, oral ayahuasca
[12] = left centro-parieto-occipital electrodes
[13] = one large widespread bilateral cluster
[14] = plasma, 16 volunteers, oral ayahuasca, sampling to 200 min
[15] = one right central electrode (C6)

SMILES | Clusters between plasma concentration and EEG spectra [1] | Cohen's d, plasma concentration vs slow-gamma power increase [1, 6] | Cohen's d, plasma concentration vs slow-gamma power increase [1, 7] | Cohen's d, plasma concentration vs fast-gamma power increase ([1]; right frontal electrodes) | Cohen's d, plasma concentration vs slow-gamma power increase ([1]; right frontal electrodes) | Cmax [2, 8] | Cmax [2, 9] | Tmax [2, 10] | AUC (min—max) [2, 11] | Cohen's d, plasma concentration vs alpha band power decrease [1, 12] | Cohen's d, plasma concentration vs fast-gamma power increase [1, 13] | Cohen's d, plasma concentration vs slow-gamma power increase ([1]; right parietal electrodes) | Cohen's d, plasma concentration vs alpha band [1] | Clusters between plasma concentration and delta band [1] | Cmax (min—max) [2, 11] | Tmax (mean ± sd) [2, 11] | Cmax (mean ± sd) [2, 14] | Clusters between plasma concentration and alpha band [1] | also measured
CC1=NCCc2c1[nH]c1cc(O)ccc21 [Harmalol] | did not show any significant clusters | 0.0707 | 0.0542 | 0.0785 | 0.001 | 17.2 ± 13.6 ng/mL | 3.11 to 48.5 ng/mL | 2.08 h | 9.91 to 204.99 g·min/mL |  |  |  |  |  |  |  |  |  | Cohen's d, plasma concentration vs alpha band power decrease ([1]; left centro-parietal electrodes): 0.0673; Cohen's d, plasma concentration vs fast-gamma power increase ([1]; left fronto-temporal electrodes): 0.1479; Cohen's d, plasma concentration vs alpha band power decrease [1, 7]: 0.1056
COc1ccc2c(c1)[nH]c1c(C)nccc12 [Harmine] | did not show any significant clusters |  | 0.1797 |  | 0.0024 | 110 ± 138 ng/mL |  | 2.5 h | 21.37 to 2325.28 g·min/mL | 0.0297 | 0.0312 | 0.1208 |  |  |  |  |  |  | Cohen's d, plasma concentration vs slow-gamma power increase ([1]; left centro-frontal electrodes (F7, FC5, C5 and C3)): 0.2028; Effects in humans ([3]; 120 mg orally): barely-perceptible sedative effects; Effects in humans ([3]; 10 to 20 mg/kg i.m.): effects qualitatively similar to LSD or mescaline; Psychoactive dose ([3]; i.v.): ≥ 200 mg; Potency at inhibiting MAO-A relative to MAO-B [4]: 10,000 fold; Affinity for 5HT-2A receptors [5]: moderate affinity; Tmax ([2]; from ayahuasca ingestion, group average curve, read-out: Time of peak plasma level in the group average (converted)): 0.833 h
Cc1[nH]ccc2c1[nH]c1cc(=O)ccc12 [Harmol] | did not show any significant clusters | 0.1250 | 0.2921 |  | 0.2747 | 85 ± 93.6 ng/mL | < 319 ng/mL | 2.47 h | 0.00 to 1550.35 g·min/mL | 0.0556 | 0.0463 | 0.0941 | 0.3029 |  |  |  |  |  | 
O=C(O)Cc1c[nH]c2ccccc12 [IAA, indoleacetic acid] |  |  |  | 0.0737 |  |  |  |  | 1237.81 to 7726.25 g·min/mL |  |  |  | 0.2888 | not significant | 61.35 to 1674.57 ng/mL | 2.9167 ± 0.6632 h | 717.72 ± 454.50 ng/mL |  | Clusters between plasma concentration and beta band ([1]; beta band): No significant clusters; Cohen's d, plasma concentration vs slow-gamma ([1]; right centro-frontal electrodes (F2, FCz, FC2, FC4)): 0.0052; Cohen's d, plasma concentration vs fast-gamma ([1]; right parietal electrodes (CP2, Pz, P2, P4)): 0.1428
CNCCc1c[nH]c2ccccc12 [NMT, N‐methyltryptamine] |  |  |  |  |  | 3.1 ± 2.12 ng/mL | 0.57 to 7.56 ng/mL | 2.03 h | 1.52 to 21.69 g·min/mL |  |  | 0.1538 |  | not significant |  |  |  | No significant clusters | Cohen's d, plasma concentration vs slow-gamma power increase ([1]; bilateral frontal electrodes): 0.0822; Cohen's d, plasma concentration vs fast-gamma power increase ([1]; bilateral fronto-central electrodes): 0.0290; Cohen's d, plasma concentration vs fast-gamma power increase ([1]; bilateral parieto-occipital electrodes): 0.0911; Cohen's d, plasma concentration vs beta power increase ([1]; left frontal electrodes (F7, AF7, AF3, AFz)): 0.0863; Cohen's d, plasma concentration vs slow-gamma power increase ([1]; occipital electrodes (O1, Oz and O2)): 0.2579
CC1NCCc2c1[nH]c1cc(O)ccc21 (centres unmarked) [THH-OH, 7‐hydroxy‐tetrahydroharmine] |  |  |  |  |  |  |  |  | 0.00 to 284.32 g·min/mL |  |  |  |  |  | 0.00 to 111.01 ng/mL | 1.994 ± 0.8978 h | 22.58 ± 26.76 ng/mL | No significant clusters | Cohen's d, plasma concentration vs delta band power increase ([1]; one left frontal electrode (F7)): 0.2644; Cohen's d, plasma concentration vs delta band power increase [1, 15]: 0.0269; Cohen's d, plasma concentration vs theta band power increase [1, 15]: 0.2630; Clusters between plasma concentration and slow-gamma frequency band ([1]; slow-gamma band): No significant clusters
